For data set [1], the system named is electron transfer system of the sub-mitochondrial particles. Conditions: 10 min. As for the experimental part: FIG. 3A is a graph illustrating the pH values at one-minute intervals when 20 wt % of ethanol, (toxic material) and 20 wt % of sorbitol (non-toxic material) are added to sub-mitochondrial particles and an electron donor to cause reactions.
FIGS. 5A and 5B illustrate an exemplary embodiment of a method of positively detecting toxic materials in which phenolphthalein is used as a pH indicator. FIG. 5A is a graph illustrating pH values at two-minute intervals when 20 wt % of ethanol (toxic material), 2.5 wt % of ethanol (toxic material), and 20 wt % of sorbitol (non-toxic material) were added to sub-mitochondrial particles and an electron donor to cause reactions. FIG. 5B is a graph and showing the final pH value of each reactant after the reaction solutions were allowed to react for 10 minutes according to the reaction described in FIG. 5A.

Data set [2] shares this test system.
Description: NaOH was adequately added to a pH indicator, phenol red, to adjust the pH to 10. […] The reaction resultants obtained by the above process and a phenol red solution were mixed together with the weight ratio of 1:1 to identify the color of the mixture solution.

The results in this text go back to patent US8367367B2, “Kit for positively detecting toxic material” (Samsung Electronics Co., Ltd., priority 2006, dated 2013).

Where two headings read alike, the source gives them in different places.

Consider `CCO` [ethanol], for which the “final pH of the reaction resultant” value was 8.16 in data set [1] (2.5 wt %) and 6.43 in data set [1] (20 wt %).
On to `OC[C@@H](O)[C@@H](O)[C@H](O)[C@@H](O)CO` [sorbitol], for which, in data set [2], the “color of the mixture solution (phenol red)” value is reported as “remain the same”. In addition, in data set [1] (20 wt %), the “final pH of the reaction resultant” value was 9.17.
